Data taken from patent US20250059171A1 (Hoffmann-La Roche Inc., priority 2021, published 2025).
Read-outs that look alike come from different tables or passages of the source.

How the values were obtained:
[1] = target: SARS-CoV 3CLpro (Severe acute respiratory syndrome coronavirus, UniProt P0C6X7); test: biochemical
[2] = target: HCoV-229E 3CLpro (Human coronavirus 229E, UniProt P0C6X1); test: HCoV-229E 3CLpro inhibition assay (FRET); format: biochemical
[3] = target: MERS-CoV 3CLpro (Middle East respiratory syndrome-related coronavirus, UniProt K9N7C7); test: biochemical
[4] = target: SARS-CoV-2 3CLpro (Severe acute respiratory syndrome coronavirus 2, UniProt P0DTD1); test: biochemical

Chain of MERS-CoV 3CLpro (K9N7C7 3248-3553): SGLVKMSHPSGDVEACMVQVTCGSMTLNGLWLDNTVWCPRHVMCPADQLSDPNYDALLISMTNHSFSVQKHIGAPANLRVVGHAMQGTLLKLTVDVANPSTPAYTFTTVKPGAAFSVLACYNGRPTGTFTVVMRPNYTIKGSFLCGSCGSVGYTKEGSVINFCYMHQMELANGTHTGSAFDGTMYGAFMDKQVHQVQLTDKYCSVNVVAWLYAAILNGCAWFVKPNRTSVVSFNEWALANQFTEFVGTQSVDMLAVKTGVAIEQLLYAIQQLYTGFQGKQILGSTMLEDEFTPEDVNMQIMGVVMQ
Chain of HCoV-229E 3CLpro (P0C6X1 2966-3267): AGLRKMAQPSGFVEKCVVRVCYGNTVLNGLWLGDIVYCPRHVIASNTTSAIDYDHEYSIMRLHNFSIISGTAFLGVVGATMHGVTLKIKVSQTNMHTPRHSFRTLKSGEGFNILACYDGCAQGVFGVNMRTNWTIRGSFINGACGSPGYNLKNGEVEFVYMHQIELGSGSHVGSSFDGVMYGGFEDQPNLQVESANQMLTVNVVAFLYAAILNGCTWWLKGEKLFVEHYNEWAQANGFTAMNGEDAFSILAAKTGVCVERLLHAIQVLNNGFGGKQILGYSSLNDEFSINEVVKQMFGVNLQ

| SMILES | IC50 [1] [nM] | IC50 [2] [nM] | IC50 [3] [nM] | IC50 [4] [nM] | IC50 ([4]; read-out: IC50 in SARS-CoV-2 3CLpro assay) [nM] |
| --- | --- | --- | --- | --- | --- |
| CC[C@H](C)[C@H](NC(=O)[C@@H](F)Cl)C(=O)N1C[C@H]2[C@@H]([C@H]1C(=O)NN(C[C@@H]1CCNC1=O)C(=O)[C@@H](F)Cl)C2(C)C [Example 186, (2S)-2-chloro-N-[(1S,2S)-1-[(1R,2S,5S)-2-[[[(2S)-2-chloro-2-fluoro-acetyl]-[[(3S)-2-oxopyrrolidin-3-yl]methyl]amino]carbamoyl]-6,6-dimethyl-3-azabicyclo[3.1.0]hexane-3-carbonyl]-2-methyl-butyl]-2-fluoro-acetamide] | 23 | 49 | 69 | 13 |  |
| CC[C@H](C)[C@H](NC(=O)[C@@H](F)Cl)C(=O)N1CC(C)(C)C[C@H]1C(=O)NN(C[C@@H]1CCNC1=O)C(=O)[C@@H](F)Cl [Example 187, (2S)-2-chloro-N-[(1S,2S)-1-[(2S)-2-[[[(2S)-2-chloro-2-fluoro-acetyl]-[[(3S)-2-oxopyrrolidin-3-yl]methyl]amino]carbamoyl]-4,4-dimethyl-pyrrolidine-1-carbonyl]-2-methyl-butyl]-2-fluoro-acetamide] | 43 | 36 | 167 | 24 |  |
| CC[C@H](C)[C@H](NC(=O)[C@H](F)Cl)C(=O)N1C[C@H]2[C@@H]([C@H]1C(=O)NN(C[C@@H]1CCCNC1=O)C(=O)[C@H](F)Cl)C2(C)C [Example 188, (2R)-2-chloro-N-[(1S,2S)-1-[(1R,2S,5S)-2-[[[(2R)-2-chloro-2-fluoro-acetyl]-[[(3S)-2-oxo-3-piperidyl]methyl]amino]carbamoyl]-6,6-dimethyl-3-azabicyclo[3.1.0]hexane-3-carbonyl]-2-methyl-butyl]-2-fluoro-acetamide] | 12 | 26 | 68 | 8 |  |
| CC[C@H](C)[C@H](NC(=O)[C@@H](F)Cl)C(=O)N1C[C@H]2[C@@H]([C@H]1C(=O)NN(C[C@@H]1CCCNC1=O)C(=O)[C@@H](F)Cl)C2(C)C [Example 189, (2S)-2-chloro-N-[(1S,2S)-1-[(1R,2S,5S)-2-[[[(2S)-2-chloro-2-fluoro-acetyl]-[[(3S)-2-oxo-3-piperidyl]methyl]amino]carbamoyl]-6,6-dimethyl-3-azabicyclo[3.1.0]hexane-3-carbonyl]-2-methyl-butyl]-2-fluoro-acetamide] | 10 | 24 | 50 | 8 |  |
| CC[C@H](C)[C@H](NC(=O)[C@H](F)Cl)C(=O)N1C[C@@H]2CCC[C@@H]2[C@H]1C(=O)NN(C[C@@H]1CCCNC1=O)C(=O)[C@H](F)Cl [Example 190, (2R)—N-[(1S,2S)-1-[(3S,3aS,6aR)-3-[[[(2R)-2-chloro-2-fluoro-acetyl]-[[(3S)-2-oxo-3-piperidyl]methyl]amino]carbamoyl]-3,3a,4,5,6,6a-hexahydro-1H-cyclopenta[c]pyrrole-2-carbonyl]-2-methyl-butyl]-2-chloro-2-fluoro-acetamide] | 11 | 29 | 59 | 8 |  |
| CC[C@H](C)[C@H](NC(=O)[C@@H](F)Cl)C(=O)N1C[C@@H]2CCC[C@@H]2[C@H]1C(=O)NN(C[C@@H]1CCCNC1=O)C(=O)[C@@H](F)Cl [Example 191, (2S)—N-[(1S,2S)-1-[(3S,3aS,6aR)-3-[[[(2S)-2-chloro-2-fluoro-acetyl]-[[(3S)-2-oxo-3-piperidyl]methyl]amino]carbamoyl]-3,3a,4,5,6,6a-hexahydro-1H-cyclopenta[c]pyrrole-2-carbonyl]-2-methyl-butyl]-2-chloro-2-fluoro-acetamide] | 11 | 27 | 49 |  | 7 |
| CC[C@H](C)[C@H](NC(=O)[C@H](F)Cl)C(=O)N1C[C@@H]2CCC[C@@H]2[C@H]1C(=O)NN(C[C@H]1CCCNC1=O)C(=O)[C@H](F)Cl [Example 192, (2R)—N-[(1S,2S)-1-[(3S,3aS,6aR)-3-[[[(2R)-2-chloro-2-fluoro-acetyl]-[[(3R)-2-oxo-3-piperidyl]methyl]amino]carbamoyl]-3,3a,4,5,6,6a-hexahydro-1H-cyclopenta[c]pyrrole-2-carbonyl]-2-methyl-butyl]-2-chloro-2-fluoro-acetamide] | 17 | 52 | 148 | 10 |  |
| CC[C@H](C)[C@H](NC(=O)[C@@H](F)Cl)C(=O)N1C[C@@H]2CCC[C@@H]2[C@H]1C(=O)NN(C[C@H]1CCCNC1=O)C(=O)[C@@H](F)Cl [Example 193, (2S)—N-[(1S,2S)-1-[(3S,3aS,6aR)-3-[[[(2S)-2-chloro-2-fluoro-acetyl]-[[(3R)-2-oxo-3-piperidyl]methyl]amino]carbamoyl]-3,3a,4,5,6,6a-hexahydro-1H-cyclopenta[c]pyrrole-2-carbonyl]-2-methyl-butyl]-2-chloro-2-fluoro-acetamide] | 33 | 49 | 110 | 17 |  |
| CC[C@H](C)[C@H](NC(=O)[C@H](F)Cl)C(=O)N1C[C@H]2[C@@H]([C@H]1C(=O)NN(C[C@H]1CCCNC1=O)C(=O)[C@H](F)Cl)C2(C)C [Example 194, (2R)-2-chloro-N-[(1S,2S)-1-[(1R,2S,5S)-2-[[[(2R)-2-chloro-2-fluoro-acetyl]-[[(3R)-2-oxo-3-piperidyl]methyl]amino]carbamoyl]-6,6-dimethyl-3-azabicyclo[3.1.0]hexane-3-carbonyl]-2-methyl-butyl]-2-fluoro-acetamide] | 25 | 29 | 112 | 15 |  |
| CC[C@H](C)[C@H](NC(=O)[C@@H](F)Cl)C(=O)N1C[C@H]2[C@@H]([C@H]1C(=O)NN(C[C@H]1CCCNC1=O)C(=O)[C@@H](F)Cl)C2(C)C [Example 195, (2S)-2-chloro-N-[(1S,2S)-1-[(1R,2S,5S)-2-[[[(2S)-2-chloro-2-fluoro-acetyl]-[[(3R)-2-oxo-3-piperidyl]methyl]amino]carbamoyl]-6,6-dimethyl-3-azabicyclo[3.1.0]hexane-3-carbonyl]-2-methyl-butyl]-2-fluoro-acetamide] | 51 | 29 | 112 | 28 |  |
| CC(C)(C)[C@H](NC(=O)[C@@H]1CC1(F)F)C(=O)N1C[C@@H]2CCC[C@@H]2[C@H]1C(=O)NN(C[C@@H]1CCCNC1=O)C(=O)[C@H](F)Cl [Example 196, (1S)—N-[(1S)-1-[(3S,3aS,6aR)-3-[[[(2R)-2-chloro-2-fluoro-acetyl]-[[(3S)-2-oxo-3-piperidyl]methyl]amino]carbamoyl]-3,3a,4,5,6,6a-hexahydro-1H-cyclopenta[c]pyrrole-2-carbonyl]-2,2-dimethyl-propyl]-2,2-difluoro-cyclopropanecarboxamide] | 14 | 38 | 89 | 11 |  |
| CC(C)(C)[C@H](NC(=O)[C@@H]1CC1(F)F)C(=O)N1C[C@@H]2CCC[C@@H]2[C@H]1C(=O)NN(C[C@@H]1CCCNC1=O)C(=O)[C@@H](F)Cl [Example 197, (1S)—N-[(1S)-1-[(3S,3aS,6aR)-3-[[[(2S)-2-chloro-2-fluoro-acetyl]-[[(3S)-2-oxo-3-piperidyl]methyl]amino]carbamoyl]-3,3a,4,5,6,6a-hexahydro-1H-cyclopenta[c]pyrrole-2-carbonyl]-2,2-dimethyl-propyl]-2,2-difluoro-cyclopropanecarboxamide] | 13 | 65 | 94 | 11 |  |
